Measurements from ChEMBL document CHEMBL4270542, “Synthesis and study of benzofuran-pyran analogs as BMP-2 targeted osteogenic agents” (Eur J Med Chem, 2018).
The source made the active and inactive calls. No cut-off for these calls is given here.

Legend:
[1] = system: Calvarial osteoblast; test: Cytotoxicity against rat calvarial osteoblast assessed as effect on cell viability at 0.000001 to 100 uM after 48 hrs by MTT assay; type: cell-based
[2] = system: Calvarial osteoblast; test: Induction of osteoblast differentiation in rat calvarial osteoblast assessed as increase in ALP activity using PNPP as substrate measured after 48 hrs; type: functional, cell-based; details: for EC50: Rattus norvegicus, Calvarial osteoblast, 48 h
[3] = system: Calvarial osteoblast; test: Induction of mineralization in rat calvarial osteoblast at 1 uM supplemented with fresh medium containing compounds every 48 hrs for 21 days by alizarin red-S staining based assay; type: functional, cell-based
[4] = system: Calvarial osteoblast; test: Induction of osteoblast differentiation in rat calvarial osteoblast assessed as increase in BMP2 mRNA expression at 0.01 to 1 uM after 48 hrs by SYBR green dye based qRT-PCR analysis relative to control; type: functional
[5] = system: Rattus norvegicus; test: In vivo induction of osteogenesis in rat assessed as increase in COL1 mRNA expression at 2.5 mg/kg, sc administered daily for 5 days by qRT-PCR analysis; type: functional, organism-based
[6] = system: Rattus norvegicus; test: In vivo induction of osteogenesis in rat assessed as increase in OCN mRNA expression at 10 mg/kg, sc administered daily for 5 days by qRT-PCR analysis; type: functional, organism-based
[7] = system: Calvarial osteoblast; test: Induction of osteoblast differentiation in rat calvarial osteoblast assessed as increase in COL1 mRNA expression at 1 pM after 48 hrs by SYBR green dye based qRT-PCR analysis; type: functional, cell-based
[8] = system: Calvarial osteoblast; test: Induction of mineralization in rat calvarial osteoblast at 1 pM supplemented with fresh medium containing compounds every 48 hrs for 21 days by alizarin red-S staining based assay; type: functional, cell-based
[9] = system: Calvarial osteoblast; test: Induction of osteoblast differentiation in rat calvarial osteoblast assessed as increase in Runx2 mRNA expression at 1 pM after 48 hrs by SYBR green dye based qRT-PCR analysis relative to control; type: functional
[10] = system: Rattus norvegicus; test: In vivo induction of osteogenesis in rat assessed as increase in OCN mRNA expression at 5 mg/kg, sc administered daily for 5 days by qRT-PCR analysis; type: functional, organism-based
[11] = system: Rattus norvegicus; test: In vivo induction of osteogenesis in rat assessed as increase in BMP2 mRNA expression at 10 mg/kg, sc administered daily for 5 days by qRT-PCR analysis; type: functional, organism-based
[12] = system: Rattus norvegicus; test: In vivo induction of osteogenesis in rat assessed as increase in BMP2 mRNA expression at 2.5 mg/kg, sc administered daily for 5 days by qRT-PCR analysis; type: functional, organism-based
[13] = system: Rattus norvegicus; test: In vivo induction of osteogenesis in rat assessed as increase in COL1 mRNA expression at 10 mg/kg, sc administered daily for 5 days by qRT-PCR analysis; type: functional, organism-based
[14] = system: Calvarial osteoblast; test: Induction of osteoblast differentiation in rat calvarial osteoblast assessed as increase in BMP2 mRNA expression at 1 to 100 pM after 48 hrs by SYBR green dye based qRT-PCR analysis relative to control; type: functional
[15] = system: Calvarial osteoblast; test: Induction of osteoblast differentiation in rat calvarial osteoblast assessed as increase in BMP2 mRNA expression at 0.1 to 10 nM after 48 hrs by SYBR green dye based qRT-PCR analysis relative to control; type: functional
[16] = system: Calvarial osteoblast; test: Induction of mineralization in rat calvarial osteoblast at 10 nM supplemented with fresh medium containing compounds every 48 hrs for 21 days by alizarin red-S staining based assay; type: functional, cell-based

Structure (SMILES)	Activity [1]	concentration of maximal effect [2] [µM]	EC50 [2] [nM]	Activity [3]	fold change (FC) [4]	Activity [5]	Activity [6]	Activity [7]	Activity [8]	fold change (FC) [9]	Activity [10]	Activity [11]	Activity [12]	Activity [13]	fold change (FC) [14]	fold change (FC) [15]	Activity [16]
CCc1cc(C2C3=C(CC(C)(C)CC3=O)OC3=C2C(=O)CC(C)(C)C3)cc2cc(C(=O)c3ccc(F)cc3)oc12	Non-Toxic	10	7960	Active	2	–	–	–	–	–	–	–	–	–	–	–	–
Cc1cc(C2C3=C(CCCC3=O)OC3=C2C(=O)CCC3)cc2cc(C(=O)c3ccc(F)cc3)oc12	Non-Toxic	1e-06	0.000822	–	–	Active	Active	Active	Active	2	Active	Active	Active	Active	2.5	–	–
CCc1cc(C2C3=C(CCCC3=O)OC3=C2C(=O)CCC3)cc2cc(C(=O)c3ccc(F)cc3)oc12	Non-Toxic	0.01	7.59	–	–	–	–	–	–	–	–	–	–	–	–	2	Active
